pEC50: −log10 of the molar value.
system: Hepatitis C replicon in Huh-7 cells; test: HCV replicon replication assay (NPT ELISA); format: cell-based; settings: Hepatitis C virus, Huh-7, 72 h
Experimental: Compounds claimed herein are tested for the ability to inhibit viral replication of the Hepatitis C replicon in cultured cells in which the HCV replicon construct has been incorporated. The HCV replicon system was described by Bartenschlager, et. al (Science, 285, pp. 110-113 (1999)). The replicon system is predictive of in vivo anti-HCV activity; compounds that are active in humans uniformly evidence activity in the replicon assay.
In this assay HCV replicon containing cells are treated with different concentrations of the test compound to ascertain the ability of the test compound to suppress replication of the HCV replicon. As a positive control, HCV replicon-containing cells are treated with different concentrations of interferon alpha, a known inhibitor of HCV replication. The replicon assay system includes Neomycin Phosphotransferase (NPT) as a component of the replicon itself in order to detect the transcription of replicon gene products in the host cell. Cells in which the HCV replicon is actively replicating have high levels of NPT; the level of NPT is proportional to HCV replication. […] The NPT level of each sample is measured using a captured ELISA.
A protocol for testing compounds for the ability to inhibit viral replication of the Hepatitis C replicon cultured cells in which the replicon construct has been incorporated, follows.
The HCV replicon contains, 5′-3′, the HCV-IRES, the neomycin phosphotransferase (neo) gene, the IRES of encephalomyocarditis virus, which directs translation of HCV sequences NS3 to NS5B, and the 3′-NTR. The sequence of the HCV replicon has been deposited in GenBank (Accession no. AJ242652).
The replicon is transfected into Huh-7 cells using standard methods such as electroporation.
The cells are then seeded onto 96-well plates at a density of 6000-7500 cells/100 microliters/well (6-7.5×10^5 cells/10 ml/plate). The plates are then incubated at 37° C. in a 5% CO2 incubator.
HCV replicon-containing cells are rinsed with once PBS once; 2 mls of trypsin are then added. Cells are incubated at 37° C. in a 5% CO2 incubator for 3-5 minutes. 10 mls of complete medium is added to stop the reaction. Cells are blown gently, put into a 15 ml tube, and spun at 1200 rpm for four minutes. The trypsin/medium solution is removed and 5 mls of medium (500 ml DMEM (high glucose)) from BRL catalog #12430-054; 50 mls 10% FBS, 5% Geneticin G418 (50 mg/ml, BRL catalog #10131-035), 5 ml MEM non-essential amino acids (100×BRL #11140-050) and 5 ml pen-strep (BRL #15140-148) is added. The cells and media are mixed carefully
Cells are plated with screening medium (500 ml DMEM (BRL #21063-029), 50 ml FBS (BRL #10082-147) and 5 ml MEM non-essential amino acid (BRL #11140-050) at 6000-7500 fcells/100 μl/well of 96 well plate (6-7.5×10^5 cells/10 ml/plate). Plates are placed into 37° C. 5% CO2 incubator overnight.
The following morning, drugs (test compounds or interferon alpha) are diluted in 96 well U bottom plates with media or DMSO/media, depending on the final concentration chosen for screening. Generally for 6 concentrations of each test compounds ranging from 10 micromolar to 0.03 micromolar are applied. 100 μl of the test compound dilution is placed in wells of the 96 well plate containing the HCV replicon cells. Media without drug is added to some wells as a negative controls. DMSO is known to affect cell growth. Therefore, if drugs diluted in DMSO are used, all wells, including negative control (media only) and positive control (interferon alpha) wells, must contain the same concentration of DMSO, for single dose screening. The plates are incubated at 37° C. in a humidified 5% CO2 environment for three days.
On day four, the NTPII assay is quantitated. The medium is poured from the plates and the plates are washed once in 200 μl of PBS. The PBS is then decanted and the plates tapped in a paper towel to remove any remaining PBS. […]

Structure (SMILES)	pEC50
C=CC1CC1(NC(=O)[C@@H]1C[C@@H](Oc2cc(-c3ccccc3)nc3cc(OC)ccc23)CN1C(=O)[C@@H](CC(=O)N1CCCCC1C(N)=O)C(C)(C)C)C(=O)OCC (stereo partly drawn) [Compound 45, ethyl 1-((2S,4R)-1-((2S)-2-tert-butyl-4-(2-carbamoylpiperidin-1-yl)-4-oxobutanoyl)-4-(7-methoxy-2-phenylquinolin-4-yloxy)pyrrolidine-2-carboxamido)-2-vinylcyclopropanecarboxylate]	5.00 to 6.00
C=CC1CC1(NC(=O)[C@@H]1C[C@@H](Oc2cc(-c3ccccc3)nc3cc(OC)ccc23)CN1C(=O)[C@@H](CC(=O)N1CCCCC1C(N)=O)C(C)(C)C)C(=O)O (stereo partly drawn) [Compound 44, 1-((2S,4R)-1-((2S)-2-tert-butyl-4-(2-carbamoylpiperidin-1-yl)-4-oxobutanoyl)-4-(7-methoxy-2-phenylquinolin-4-yloxy)pyrrolidine-2-carboxamido)-2-vinylcyclopropanecarboxylic acid]	< 5.00
C=CC1CC1(NC(=O)[C@@H]1C[C@@H](Oc2cc(-c3ccccc3)nc3cc(OC)ccc23)CN1C(=O)[C@@H](CC(=O)N1CCCc2ccccc21)C(C)(C)C)C(=O)O (stereo partly drawn) [Compound 56, 1-((2S,4R)-1-((S)-2-tert-butyl-4-(3,4-dihydroquinolin-1(2H)-yl)-4-oxobutanoyl)-4-(7-methoxy-2-phenylquinolin-4-yloxy)pyrrolidine-2-carboxamido)-2-vinylcyclopropanecarboxylic acid]	5.00 to 6.00
COc1ccc2c(O[C@@H]3C[C@H]4C(=O)N[C@@]5(C(=O)NS(=O)(=O)C6CC6)C[C@@H]5/C=C\CCCCC[C@H](CC(=O)N5CCCCC5)C(=O)N4C3)cc(-c3ccccc3)nc2c1 [Compound 59, (2R,6R,13aR,14aS,16aS,Z)-N-(cyclopropylsulfonyl)-2-(7-methoxy-2-phenylquinolin-4-yloxy)-5,16-dioxo-6-(2-oxo-2-(piperidin-1-yl)ethyl)-1,2,3,5,6,7,8,9,10,11,13a,14,14a,15,16,16a-hexadecahydrocyclopropa[e]pyrrolo[1,2-a] [1,4]diazacyclopentadecine-14a-carboxamide]	> 7.00
C=CC1CC1(NC(=O)[C@@H]1C[C@@H](Oc2cc(-c3ccccc3)nc3cc(OC)ccc23)CN1C(=O)[C@@H](CC(=O)N1CCCCC1)C(C)(C)C)C(=O)NS(=O)(=O)C1CC1 (stereo partly drawn) [Compound 49, (2S,4R)-1-((S)-2-tert-butyl-4-oxo-4-(piperidin-1-yl)butanoyl)-N-(1-(cyclopropylsulfonylcarbamoyl)-2-vinylcyclopropyl)-4-(7-methoxy-2-phenylquinolin-4-yloxy)pyrrolidine-2-carboxamide]	> 7.00
C=CC1CC1(NC(=O)[C@@H]1C[C@@H](Oc2cc(-c3ccccc3)nc3cc(OC)ccc23)CN1C(=O)[C@@H](CC(=O)N1CCCC1)C(C)(C)C)C(=O)O (stereo partly drawn) [Compound 38, 1-((2S,4R)-1-((S)-2-tert-butyl-4-oxo-4-(pyrrolidin-1-yl)butanoyl)-4-(7-methoxy-2-phenylquinolin-4-yloxy)pyrrolidine-2-carboxamido)-2-vinylcyclopropanecarboxylic acid]	< 5.00
C=CC1CC1(NC(=O)[C@@H]1C[C@@H](Oc2cc(-c3ccccc3)nc3cc(OC)ccc23)CN1C(=O)[C@@H](CC(=O)N1CCc2ccccc2C1)C(C)(C)C)C(=O)O (stereo partly drawn) [Compound 57, 1-((2S,4R)-1-((S)-2-tert-butyl-4-(3,4-dihydroisoquinolin-2(1H)-yl)-4-oxobutanoyl)-4-(7-methoxy-2-phenylquinolin-4-yloxy)pyrrolidine-2-carboxamido)-2-vinylcyclopropanecarboxylic acid]	< 5.00
C=CC1CC1(NC(=O)[C@@H]1C[C@@H](Oc2cc(-c3ccccc3)nc3cc(OC)ccc23)CN1C(=O)[C@@H](CC(=O)N1CCCCC1)C(C)(C)C)C(=O)O (stereo partly drawn) [Compound 41, 1-((2S,4R)-1-((S)-2-tert-butyl-4-oxo-4-(piperidin-1-yl)butanoyl)-4-(7-methoxy-2-phenylquinolin-4-yloxy)pyrrolidine-2-carboxamido)-2-vinylcyclopropanecarboxylic acid]	5.00 to 6.00
C=CC1CC1(NC(=O)[C@@H]1C[C@@H](Oc2cc(-c3ccccc3)nc3cc(OC)ccc23)CN1C(=O)[C@@H](CC(=O)N1CCCC1)C(C)(C)C)C(=O)OCC (stereo partly drawn) [Compound 39, ethyl 1-((2S,4R)-1-((S)-2-tert-butyl-4-oxo-4-(pyrrolidin-1-yl)butanoyl)-4-(7-methoxy-2-phenylquinolin-4-yloxy)pyrrolidine-2-carboxamido)-2-vinylcyclopropanecarboxylate]	< 5.00
COc1cc(O[C@@H]2C[C@H]3C(=O)N[C@]4(C(=O)O)C[C@H]4/C=C\CCCCC[C@H](CC(=O)N4CCCCC4)C(=O)N3C2)c2ccc(-c3ccccc3)nc2c1 [Compound 52, (2R,6R,13aS,14aR,16aS,Z)-2-(7-methoxy-2-phenylquinolin-4-yloxy)-5,16-dioxo-6-(2-oxo-2-(piperidin-1-yl)ethyl)-1,2,3,5,6,7,8,9,10,11,13a,14,14a,15,16,16a-hexahydrocyclopropa[e]pyrrolo[1,2-a] [1,4]diazacyclopentadecine-14a-carboxylic acid]	< 5.00
C=CC1CC1(NC(=O)[C@@H]1C[C@@H](Oc2cc(-c3ccccc3)nc3cc(OC)ccc23)CN1C(=O)[C@@H](CC(=O)N1CCc2ccccc2C1)C(C)(C)C)C(=O)OCC (stereo partly drawn) [Compound 51, ethyl 1-((2S,4R)-1-((S)-2-tert-butyl-4-(3,4-dihydroisoquinolin-2(1H)-yl)-4-oxobutanoyl)-4-(7-methoxy-2-phenylquinolin-4-yloxy)pyrrolidine-2-carboxamido)-2-vinylcyclopropanecarboxylate]	< 5.00
C=CC1CC1(NC(=O)[C@@H]1C[C@@H](Oc2cc(-c3ccccc3)nc3cc(OC)ccc23)CN1C(=O)[C@@H](CC(=O)N1CCC(CNC(=O)OC(C)(C)C)CC1)C(C)(C)C)C(=O)O (stereo partly drawn) [Compound 46, 1-((2S,4R)-1-((S)-4-(4-((tert-butoxycarbonylamino)methyl)piperidin-1-yl)-2-tert-butyl-4-oxobutanoyl)-4-(7-methoxy-2-phenylquinolin-4-yloxy)pyrrolidine-2-carboxamido)-2-vinylcyclopropanecarboxylic acid]	< 5.00
C=CC1CC1(NC(=O)[C@@H]1C[C@@H](Oc2cc(-c3ccccc3)nc3cc(OC)ccc23)CN1C(=O)[C@@H](CC(=O)N1CCN(C)CC1)C(C)(C)C)C(=O)O (stereo partly drawn) [Compound 43, 1-((2S,4R)-1-((S)-2-tert-butyl-4-(4-methylpiperazin-1-yl)-4-oxobutanoyl)-4-(7-methoxy-2-phenylquinolin-4-yloxy)pyrrolidine-2-carboxamido)-2-vinylcyclopropanecarboxylic acid]	< 5.00
C=C[C@@H]1C[C@]1(NC(=O)[C@@H]1C[C@@H](Oc2cc(-c3ccccc3)nc3cc(OC)ccc23)CN1C(=O)[C@@H](CC(=O)N1CCCCC1)C(C)(C)C)C(=O)NS(=O)(=O)C1CC1 [Compound 60, (2S,4R)-1-((S)-2-tert-butyl-4-oxo-4-(piperidin-1-yl)butanoyl)-N-((1R,2S)-1-(cyclopropylsulfonylcarbamoyl)-2-vinylcyclopropyl)-4-(7-methoxy-2-phenylquinolin-4-yloxy)pyrrolidine-2-carboxamide]	> 7.00

Source: patent publication US9233136B2, “4-amino-4-oxobutanoyl peptides as inhibitors of viral replication” (Achillion Pharmaceuticals, Inc., priority 2006, dated 2016)
